What was measured:
Assay type in all cases: cell-based
PfCRT^Dd2 [1] = target: T1, PfCRT^Dd2 (Plasmodium falciparum, UniProt Q9N623, A220S/I356T/K76T/M74I/N326S/N75E/Q271E/R371I); assay: cell-based; conditions: for PfCRT-mediated [3H]CQ transport, trans-stimulation (% PfCRTDd2 control): PfCRTDd2 oocytes, normalised to oocyte type control; for [3H]CQ transport (% PfCRTDd2 control), trans-stimulation, PfCRTDd2: PfCRT-mediated component (background subtracted), mean ± SEM, SEM
Description: (§1) Unless specified otherwise, the transport assays were conducted over 1.5 h at 27.5 °C and the reaction buffer was ND96 (96 mM NaCl, 2 mM KCl, 1 mM MgCl2, 1.8 mM CaCl2, 10 mM MES and 10 mM Tris-base) at pH 5.5.
(§2) The intracellular concentrations were calculated using previous estimates of the volume of stage V–VI oocytes (~400 nL[60]). […] The oocytes were injected with VF-6 suspended in 25 nL ND96 buffer adjusted to pH 5.0, 5.5, 6.0 or 7.0, which corresponded to the injection of 2.5–250 fmol of H^+. The Na^+-dependence of the trans-stimulatory effect of VF-6 was assessed by injecting the oocytes with VF-6 suspended in ND96 buffer (pH 5.5) or a Na^+-free version of this buffer (the Na^+ was replaced with choline).
(§3) At least four independent experiments were performed (on different days and using oocytes from different frogs), and within each experiment measurements were made from ten oocytes per treatment.

PfCRT^Ecu1110 [2] = target: T2, PfCRT^Ecu1110 (Plasmodium falciparum, UniProt Q9N623, A220S/I356L/K76T/N326D); assay: cell-based; conditions: for PfCRT-mediated [3H]CQ transport, trans-stimulation (% PfCRTEcu1110 control): PfCRTEcu1110 oocytes, normalised to oocyte type control; for [3H]CQ transport (% PfCRTDd2 control), trans-stimulation, PfCRTEcu1110: PfCRT-mediated component (background subtracted), sheet title says normalised to PfCRTDd2 control, mean ± SEM, SEM
T2 sequence (Q9N623 whole entry A220S/I356L/K76T/N326D): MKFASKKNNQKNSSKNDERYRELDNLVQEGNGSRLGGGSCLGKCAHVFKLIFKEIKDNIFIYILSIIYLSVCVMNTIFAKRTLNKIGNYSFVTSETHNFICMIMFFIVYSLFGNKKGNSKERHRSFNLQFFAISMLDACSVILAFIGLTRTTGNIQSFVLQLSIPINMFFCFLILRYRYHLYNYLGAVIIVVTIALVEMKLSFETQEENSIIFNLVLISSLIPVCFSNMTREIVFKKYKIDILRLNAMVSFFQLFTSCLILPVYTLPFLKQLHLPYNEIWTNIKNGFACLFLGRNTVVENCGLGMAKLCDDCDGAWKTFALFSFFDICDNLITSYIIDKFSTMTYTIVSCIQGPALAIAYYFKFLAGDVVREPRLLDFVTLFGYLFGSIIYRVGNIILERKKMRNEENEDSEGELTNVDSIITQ
Description: as §1, §2, §3

PfCRT^3D7 = PfCRT^3D7 (Plasmodium falciparum, UniProt Q8IBZ9); assay: cell-based; conditions: PfCRT3D7 oocytes, normalised to oocyte type control
Chain of PfCRT^3D7 (Q8IBZ9 59-398): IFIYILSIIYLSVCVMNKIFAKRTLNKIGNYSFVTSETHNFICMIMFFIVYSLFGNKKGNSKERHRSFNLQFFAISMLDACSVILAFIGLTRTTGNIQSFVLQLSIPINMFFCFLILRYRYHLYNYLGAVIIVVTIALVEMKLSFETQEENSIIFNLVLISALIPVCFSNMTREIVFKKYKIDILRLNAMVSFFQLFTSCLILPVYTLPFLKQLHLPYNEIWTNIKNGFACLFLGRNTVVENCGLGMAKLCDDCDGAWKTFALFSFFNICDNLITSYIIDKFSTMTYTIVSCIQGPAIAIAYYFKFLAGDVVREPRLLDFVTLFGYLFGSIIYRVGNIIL
Description: as §1, §2, §3

PfCRT^Dd2 [3] = target: T1, PfCRT^Dd2; assay: [3H]CQ uptake into Xenopus oocytes, cis-inhibition by unlabelled solute; conditions: PfCRTDd2 oocytes, background [3H]CQ accumulation subtracted, normalised to oocyte type control
Source text: (§4) The orientation of PfCRT in the parasite’s DV membrane, and also in the oocyte plasma membrane, is such that its N- and C-termini extend into the cytosol. The oocytes were suspended in a reaction buffer adjusted to pH 5.5 to mimic the pH of the DV lumen[1],[2]. In this scenario, the transport of a substrate via PfCRT from the acidic extracellular solution into the oocyte cytosol[15] is analogous to the parasite’s PfCRT-mediated efflux of a substrate from the acidic DV and into the cytosol. Unless specified otherwise, this is the direction in which substrate transport was measured in the oocyte assays.
as §1
(§5) Ten oocytes were washed twice with the relevant ND96 buffer. […] The assay was terminated by removing the reaction buffer and washing the oocytes with ice-cold ND96 buffer. The oocytes were lysed in 10% (w/v) sodium dodecyl sulfate (SDS) and the radioactivity accumulated within each oocyte was measured with a MicroBeta^2 microplate liquid scintillation analyser (PerkinElmer).
as §3

PfCRT^Ecu1110 [4] = target: T2, PfCRT^Ecu1110; assay: as above; conditions: for PfCRT-mediated [3H]CQ transport, cis-inhibition (% PfCRTEcu1110 control): PfCRTEcu1110 oocytes, background [3H]CQ accumulation subtracted, normalised to oocyte type control; for [3H]CQ transport (% PfCRTEcu1110 control), cis-inhibition, PfCRTEcu1110: PfCRT-mediated component (background subtracted), sheet title says normalised to PfCRTDd2 control, mean ± SEM, SEM
Source text: as §4, §1, §5, §3

[5] = [test solute]i = 5 mM (intracellular)
[6] = [test solute]i = 45 mM (intracellular; 30 mM for some solutes due to solubility)
[7] = [test solute]i = 5 mM (injected)
[8] = [test solute]i = 45 mM (30 mM for some solutes due to solubility)

T1 sequence (Q9N623 whole entry A220S/I356T/K76T/M74I/N326S/N75E/Q271E/R371I): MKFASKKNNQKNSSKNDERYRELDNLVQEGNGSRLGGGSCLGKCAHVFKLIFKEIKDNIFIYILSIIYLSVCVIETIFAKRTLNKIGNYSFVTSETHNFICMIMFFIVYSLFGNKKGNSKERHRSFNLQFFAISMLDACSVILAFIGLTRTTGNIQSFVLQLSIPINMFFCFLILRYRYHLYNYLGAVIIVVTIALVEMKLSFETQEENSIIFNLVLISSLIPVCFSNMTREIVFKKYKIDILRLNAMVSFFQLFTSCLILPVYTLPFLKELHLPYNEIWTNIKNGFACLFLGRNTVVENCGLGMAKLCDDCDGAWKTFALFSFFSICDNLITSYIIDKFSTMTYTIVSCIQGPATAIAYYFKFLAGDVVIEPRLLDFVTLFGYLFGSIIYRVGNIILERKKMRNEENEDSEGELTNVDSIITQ

Substance	PfCRT-mediated [3H]CQ transport, trans-stimulation (% PfCRTDd2 control) (PfCRT^Dd2 [1]; [5])	PfCRT-mediated [3H]CQ transport, trans-stimulation (% PfCRTDd2 control) (PfCRT^Dd2 [1]; [6])	[3H]CQ transport (% PfCRTDd2 control), trans-stimulation, PfCRTDd2 (PfCRT^Dd2 [1]; [7])	[3H]CQ transport (% PfCRTDd2 control), trans-stimulation, PfCRTDd2 (PfCRT^Dd2 [1]; [8])	PfCRT-mediated [3H]CQ transport, trans-stimulation (% PfCRTEcu1110 control) (PfCRT^Ecu1110 [2]; [5])	PfCRT-mediated [3H]CQ transport, trans-stimulation (% PfCRTEcu1110 control) (PfCRT^Ecu1110 [2]; [6])	[3H]CQ transport (% PfCRTDd2 control), trans-stimulation, PfCRTEcu1110 (PfCRT^Ecu1110 [2]; [7])	[3H]CQ transport (% PfCRTDd2 control), trans-stimulation, PfCRTEcu1110 (PfCRT^Ecu1110 [2]; [8])	PfCRT-mediated [3H]CQ transport, trans-stimulation (% PfCRT3D7 control) (PfCRT^3D7; [5])	PfCRT-mediated [3H]CQ transport, trans-stimulation (% PfCRT3D7 control) (PfCRT^3D7; [6])	PfCRT-mediated [3H]CQ transport, cis-inhibition (% PfCRTDd2 control) (PfCRT^Dd2 [3]; [test solute] = 0.5 mM)	PfCRT-mediated [3H]CQ transport, cis-inhibition (% PfCRTDd2 control) (PfCRT^Dd2 [3]; [test solute] = 1 mM)	PfCRT-mediated [3H]CQ transport, cis-inhibition (% PfCRTDd2 control) (PfCRT^Dd2 [3]; [test solute] = 2 mM)	PfCRT-mediated [3H]CQ transport, cis-inhibition (% PfCRTEcu1110 control) (PfCRT^Ecu1110 [4]; [test solute] = 0.5 mM)	PfCRT-mediated [3H]CQ transport, cis-inhibition (% PfCRTEcu1110 control) (PfCRT^Ecu1110 [4]; [test solute] = 1 mM)	PfCRT-mediated [3H]CQ transport, cis-inhibition (% PfCRTEcu1110 control) (PfCRT^Ecu1110 [4]; [test solute] = 2 mM)	[3H]CQ transport (% PfCRTEcu1110 control), cis-inhibition, PfCRTEcu1110 (PfCRT^Ecu1110 [4]; [test solute] = 2 mM)	[3H]CQ transport (% PfCRTEcu1110 control), cis-inhibition, PfCRTEcu1110 (PfCRT^Ecu1110 [4]; [test solute] = 0.5 mM)
VLSPAD [VD-6]	101 ± 3.6 % PfCRTDd2 control	98 ± 3.3 % PfCRTDd2 control	101 ± 3.6 % PfCRTDd2 control	98 ± 3.3 % PfCRTDd2 control	98 ± 3.2 % PfCRTEcu1110 control	98 ± 3.3 % PfCRTEcu1110 control	30 ± 1.3 % PfCRTEcu1110 control	30 ± 1.4 % PfCRTEcu1110 control	97 ± 4.2 % PfCRT3D7 control	95 ± 4.1 % PfCRT3D7 control	47 ± 1.8 % PfCRTDd2 control	28 ± 1.1 % PfCRTDd2 control	29 ± 1.0 % PfCRTDd2 control	58 ± 3.5 % PfCRTEcu1110 control	48 ± 3.2 % PfCRTEcu1110 control	39 ± 0.4 % PfCRTEcu1110 control	12 ± 0.01 % PfCRTEcu1110 control	–
VHLT [VT-4]	97 ± 4.6 % PfCRTDd2 control	98 ± 3.2 % PfCRTDd2 control	97 ± 4.6 % PfCRTDd2 control	98 ± 3.2 % PfCRTDd2 control	99 ± 3.2 % PfCRTEcu1110 control	97 ± 3.6 % PfCRTEcu1110 control	30 ± 1.3 % PfCRTEcu1110 control	29 ± 1.5 % PfCRTEcu1110 control	97 ± 3.2 % PfCRT3D7 control	95 ± 4.7 % PfCRT3D7 control	51 ± 2.0 % PfCRTDd2 control	39 ± 2.8 % PfCRTDd2 control	16 ± 0.4 % PfCRTDd2 control	56 ± 4.1 % PfCRTEcu1110 control	39 ± 4.1 % PfCRTEcu1110 control	27 ± 1.4 % PfCRTEcu1110 control	9.0 ± 0.2 % PfCRTEcu1110 control	18 ± 0.3 % PfCRTEcu1110 control
